Measured values: PubChem BioAssay (NCI)
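Step 1: Grow cells in 96-well plates. Step 2: Expose to compound for 48 hours at 5 concentrations. Step 3: Interpolate endpoints linearly; if unreached, use highest concentration. At the GI50, growth is halved. The concentration for full growth arrest is given as TGI.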

Legend:
Assay in all cases: growth of human tumour cells (NCI), 48 h
M14 melanoma = test system: M14 melanoma
786-0 renal = test system: 786-0 renal
KM12 colon = test system: KM12 colon
U251 CNS = test system: U251 CNS
MDA-MB-435 = test system: MDA-MB-435
LOX IMVI melanoma = test system: LOX IMVI melanoma
UACC-62 melanoma = test system: UACC-62 melanoma
T-47D breast = test system: T-47D breast
COLO 205 colon = test system: COLO 205 colon
HL-60(TB) leukemia = test system: HL-60(TB) leukemia

Structure (SMILES)	GI50 (M14 melanoma) [µM]	TGI (M14 melanoma) [µM]	GI50 (786-0 renal) [µM]	TGI (786-0 renal) [µM]	GI50 (KM12 colon) [µM]	TGI (KM12 colon) [µM]	GI50 (U251 CNS) [µM]	TGI (U251 CNS) [µM]	GI50 (MDA-MB-435) [µM]	TGI (MDA-MB-435) [µM]	GI50 (LOX IMVI melanoma) [µM]	TGI (LOX IMVI melanoma) [µM]	GI50 (UACC-62 melanoma) [µM]	TGI (UACC-62 melanoma) [µM]	GI50 (T-47D breast) [µM]	TGI (T-47D breast) [µM]	GI50 (COLO 205 colon) [µM]	TGI (COLO 205 colon) [µM]	GI50 (HL-60(TB) leukemia) [µM]	TGI (HL-60(TB) leukemia) [µM]
COc1ccc(C2CC(c3ccc(Nc4ccnc5cc(Cl)ccc45)cc3)=NN2C=O)cc1 (stereo not given)	7.67	> 100	32	> 100	16.5	> 100	15	> 100	1.72	5.22	2.32	15.6	5.99	49.8	1.38	15	3.56	> 100	2.23	5.16
Cc1ccc(C=C2C(Cl)=C(Cl)C(Cl)=C2Cl)cc1	0.561	1.66	0.721	1.75	1.15	2.56	0.664	1.96	0.42	1.6	0.303	0.959	0.784	2.74	1.02	2.79	0.737	2.09	0.363	1.53
C#Cc1cccc(Nc2ncnc3ccc(OCCCCNCCS(C)(=O)=O)cc23)c1	5.11	9.66	7.54	> 25	9.74	> 25	6.43	> 23.3	5.37	12.5	4.78	11.1	4.82	9.1	7.2	> 25	5.58	12.3	5.37	11.3
CC1(C)N=C(N)N=C(N)N1c1ccc(OCCCNC(=O)Nc2cccc(S(=O)(=O)F)c2)c(Cl)c1	3.26	> 100	1.11	> 100	4.53	> 100	0.777	> 100	2.14	> 100	2.66	> 100	1.43	> 100	35.1	> 100	12.5	> 100	0.441	> 100
COc1ccc(NC2=C(I)C(=O)c3ncccc3C2=O)cc1	1.29	2.9	1.85	4.74	1.68	3.77	0.673	2.12	0.253	0.628	0.309	1.57	1.66	3.4	1.59	4.17	1.68	3.47	1.94	4.34
COc1c(/C=C/C=O)cc2c(c1OC)OCO2	–	56.2	–	> 100	–	29.4	–	84.1	–	> 100	–	76	–	57	–	> 100	–	> 100	–	53.1
O=C(NCCCl)Nc1cccnc1	–	> 100	–	39.9	–	41.5	–	> 100	–	> 100	–	55.3	–	> 100	–	59.5	–	51.3	–	> 100
